Where “and” joins values, the source holds several entries; their conditions need not be identical. Equal entries are not always repeated.
Legend:
[1] = target: T1, hH4R (Homo sapiens, UniProt Q9H3N8); assay: cAMP accumulation assay (LANCE Ultra cAMP, CHO-K1 cells stably expressing hH4R); type: cell-based; set-up: expressed in transfected cells; conditions: antagonist mode
[2] = target: T2, human histamine H4 receptor (Homo sapiens, UniProt Q9H3N8); assay: [3H]histamine displacement assay, membranes of Sf9 cells expressing hH4R with Gαi2 and Gβ1γ2; type: binding; conditions: for Ki: Sf9 membranes, mean within 95% CI; for inhibition at 1 µM: per cent of inhibition at 1 μM, read-out: hH4R inh. at 1 μM
T2 construct: made in house; host or cells: Sf9 cells (membrane preparations)
Procedure: The affinity of compounds 2–20 for hH4R was evaluated in a binding assay as previously described. [^3H]Histamine was used as a radioligand and hH4R was expressed in Sf9 cells with G protein Gαi2 and Gβ1γ2 subunits. The pharmacological results represented as Ki values are listed in Table 1 (for alicyclic derivatives) and Table 2 (for aliphatic derivatives). […] Results depended on the substituent in the four positions of a triazine (a main structure).
Affinities of all triazine derivatives were determined in a [^3H] histamine (f.c. 10 nM) displacement assay using membrane preparations from Sf9 cells expressing human H4R and co-expressed with Gαi2 and Gβ1γ2 subunits as described previously. Nonspecific binding was determined in the presence of unlabelled JNJ7777120 ([…]).

[3] = target: T1, hH4R; assay: β-arrestin recruitment assay (LiveBLAzer, Tango-H4-bla U2OS cells); type: cell-based; set-up: expressed in transfected cells; host or cells: Tango-H4-bla U2OS cells; conditions: for IC50 / β-arrestin hH4R % of max. Antagonist Activity at 10 µM: antagonist mode; for IC50: histamine 500 nM (EC80), Tango-H4-bla U2OS cells, read-out: β-arrestin hH4R IC50 ± SEM; for Kb: calculated from IC50 by Leff–Dougall variant of Cheng–Prusoff equation, read-out: pKb β-arrestin ± SEM (converted)
Procedure: Compounds were tested using LiveBLAzer^TM assay and Tango-H4-bla U2OS cells, allowing the estimation of the percentage of β-arrestin recruitment in response to tested treatments.
All used media and reagents except DMSO and tested compounds were purchased from ThermoFisher Scientific, Waltham, MA, USA. DMSO was from CarlRoth (Karlsruhe, Germany) and histamine was from Sigma Aldrich (Darmstadt, Germany). […] The day before the experiment cells were collected from the culture flask with trypsin and seeded in 384 well black-wall, clear-bottom plate (PerkinElmer, Waltham, MA, USA) in concentration 10,000 cells/well in FreeStyle medium. After 24 h of incubation, the cells were checked under the microscope and the dilutions of tested compounds were prepared and added to the wells. In agonist mode compounds were added to the wells and plates were placed in the incubator (HERAcell240, Heraeus, Hanau, Germany) for 16 h. In antagonist mode, first, the compounds were added to the wells, plates were incubated for 30 min, then histamine solution (corresponding to EC80—500 nM) was added and plates were put in the incubator for 16 h. After this time β-lactamase substrate mixture was prepared and added to wells (8 µL/well). Cells were incubated for 2 h at room temperature in the dark then the signal was read using an EnSpire microplate reader (PerkinElmer, Waltham, MA, USA). Drawing of dose-dependent curves and IC50 calculation for compounds were made using GraphPad Prism 6 (GraphPad Software, San Diego, CA, USA).

[4] = target: T1, hH4R; assay: cAMP accumulation assay (LANCE Ultra cAMP, CHO-K1 cells stably expressing hH4R); type: cell-based; set-up: expressed in transfected cells; conditions: for IC50: forskolin 10 µM, histamine 140 nM, CHO-K1 hH4R cells, read-out: cAMP hH4R IC50 ± SEM; for Kb: calculated from IC50 by Leff–Dougall variant of Cheng–Prusoff equation, read-out: pKb cAMP ± SEM (converted)
Procedure: Intrinsic activity via the Gα subunit was measured using a LANCE Ultra cAMP detection kit and CHO-K1 cells stably expressing hH4R. Adenyl cyclase was stimulated by forskolin (10 µM).
Intrinsic activity in G protein-dependent pathway was measured with homogenous TR-FRET immunoassay, using LANCE Ultra cAMP kit and CHO-K1 H4R cell line or γ-irradiated recombinant CHO-K1 H4R cells (all from PerkinElmer). […] If the CHO-K1 H4R cell line was used it had been cultivated in DMEM/F12 10% FBS 400 µg/mL geneticin and passaged three times a week. […] The antagonist activity was measured in a white, opaque, 384-well microplate (PerkinElmer) with a total volume of 20 µL. […] After incubation, 5 µL of europium chelate-labelled cAMP tracer and 5 µl of ULight-labelled anti-cAMP mAb working solutions were added, mixed and incubated for 1 h. TR-FRET signal was read using a microplate reader (PerkinElmer, Waltham, MA, USA).

T2 sequence (Q9H3N8 whole entry): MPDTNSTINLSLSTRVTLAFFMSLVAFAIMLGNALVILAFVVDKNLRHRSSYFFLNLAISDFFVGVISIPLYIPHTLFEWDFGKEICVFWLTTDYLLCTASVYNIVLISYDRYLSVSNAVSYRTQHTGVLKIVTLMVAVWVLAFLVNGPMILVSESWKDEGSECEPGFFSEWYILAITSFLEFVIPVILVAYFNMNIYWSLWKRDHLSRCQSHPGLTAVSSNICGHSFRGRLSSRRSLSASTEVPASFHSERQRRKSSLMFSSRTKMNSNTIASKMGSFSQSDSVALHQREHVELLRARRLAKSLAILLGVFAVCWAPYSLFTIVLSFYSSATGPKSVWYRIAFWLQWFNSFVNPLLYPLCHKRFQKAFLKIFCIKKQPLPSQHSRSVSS
T1 sequence (Q9H3N8 whole entry): as above

Row | Structure (SMILES) | cAMP hH4R % of max. Antagonist Activity at 10 µM [1] | Ki [2] | IC50 [3] | β-arrestin hH4R % of max. Antagonist Activity at 10 µM [3] | Kb [3] | IC50 ([4]; antagonist mode) | Kb [4] | melting point | inhibition at 1 µM [2] | cAMP hH4R % of max. Antagonist Activity at 10 µM ([4]; at 10 µM, antagonist mode)
1 | CN1CCN(c2nc(N)nc(C3CC3)n2)CC1 [Compound 2, 4-Cyclopropyl-6-(4-methylpiperazin-1-yl)-1,3,5-triazin-2-amine] | 99% | 574 nM | 287 ± 30 nM | 96% | 47.9 nM | 847 ± 53 nM | 302 nM | 156 to 159 °C |  | 
2 | CN1CCN(c2nc(N)nc(C3CCC3)n2)CC1 [Compound 3, 4-Cyclobutyl-6-(4-methylpiperazin-1-yl)-1,3,5-triazin-2-amine] | 109% | ~200 nM and 200 nM | 100 ± 15 nM | 87% | 16.6 nM | 104 ± 17 nM | 37.2 nM | 127 to 132 °C |  | 
3 | CN1CCN(c2nc(N)nc(C3CCCC3)n2)CC1 [Compound 4, 4-Cyclopentyl-6-(4-methylpiperazin-1-yl)-1,3,5-triazin-2-amine] | 95% | 1240 nM | 68.8 ± 2 nM | 95% | 11.5 nM | 102 ± 2 nM | 36.3 nM | 163 to 169 °C |  | 
4 | CN1CCN(c2nc(N)nc(C3CCCCC3)n2)CC1 [Compound 5, 4-Cyclohexyl-6-(4-methylpiperazin-1-yl)-1,3,5-triazin-2-amine] | 98% | 432 nM | 101 ± 10 nM | 92% | 16.6 nM | 219 ± 24 nM | 75.9 nM | 133 to 138 °C |  | 
5 | CN1CCN(c2nc(N)nc(CC3C=CCC3)n2)CC1 (centres unmarked) [Compound 7, 4-(Cyclopent-2-enylmethyl)-6-(4-methylpiperazin-1-yl)-1,3,5-triazin-2-amine] | 104% | 96 nM | 14 ± 1 nM | 103% | 2.34 nM | 33 ± 2 nM | 11.5 nM | 166 to 169 °C |  | 
6 | CN1CCN(c2nc(N)nc(CC34CC5CC(CC(C5)C3)C4)n2)CC1 [Compound 9, 4-(1-Adamantylmethyl)-6-(4-methylpiperazin-1-yl)-1,3,5-triazin-2-amine] |  |  |  |  |  |  |  | 200 to 201 °C | 43% | 
7 | CCCCc1nc(N)nc(N2CCN(C)CC2)n1 [Compound 10, 4-Butyl-6-(4-methylpiperazin-1-yl)-1,3,5-triazin-2-amine] | 105% | 192 nM | 82 ± 5 nM | 96% | 13.5 nM | 445 ± 10 nM | 158 nM | 117 to 118 °C |  | 
8 | CCCC(C)c1nc(N)nc(N2CCN(C)CC2)n1 (centres unmarked) [Compound 11, 4-(4-Methylpiperazin-1-yl)-6-(pentan-2-yl)-1,3,5-triazin-2-amine] | 100% | 353 nM | 97 ± 16 nM | 97% | 15.8 nM | 640 ± 49 nM | 224 nM | 138 to 140 °C |  | 
9 | CCC(C)Cc1nc(N)nc(N2CCN(C)CC2)n1 (centres unmarked) [Compound 12, 4-(2-Methylbutyl)-6-(4-methylpiperazin-1-yl)-1,3,5-triazin-2-amine] | 111% | 321 nM | 38 ± 7 nM | 100% | 6.17 nM | 132 ± 9 nM | 46.8 nM | 115 to 116 °C |  | 
10 | COC(C)Cc1nc(N)nc(N2CCN(C)CC2)n1 (centres unmarked) [Compound 13, 4-(2-Methoxypropyl)-6-(4-methylpiperazin-1-yl)-1,3,5-triazin-2-amine] |  | 4260 nM |  |  |  |  |  | 148 to 151 °C |  | 
11 | CC(C)CCc1nc(N)nc(N2CCN(C)CC2)n1 [Compound 14, 4-Isopentyl-6-(4-methylpiperazin-1-yl)-1,3,5-triazin-2-amine] | 107% | 203 nM | 24 ± 3 nM | 101% | 3.89 nM | 43 ± 17 nM | 13.8 nM | 123 to 126 °C |  | 
12 | CC/C=C/c1nc(N)nc(N2CCN(C)CC2)n1 [Compound 15, (E) 4-(But-1-enyl)-6-(4-methylpiperazin-1-yl)-1,3,5-triazin-2-amine] |  | 1490 nM |  |  |  |  |  | 125 to 126 °C |  | 
13 | C=CCCc1nc(N)nc(N2CCN(C)CC2)n1 [Compound 16, 4-(But-3-enyl)-6-(4-methylpiperazin-1-yl)-1,3,5-triazin-2-amine] | 104% | 319 nM | 146 ± 38 nM | 94% | 23.4 nM | 635 ± 123 nM | 219 nM | 132 to 133 °C |  | 
14 | C=CCC(C)c1nc(N)nc(N2CCN(C)CC2)n1 (centres unmarked) [Compound 17, 4-(4-Methylpiperazin-1-yl)-6-(pent-4-en-2yl)-1,3,5-triazin-2-amine] | 94% | 263 nM | 744 ± 139 nM | 92% | 117 nM | 721 ± 70 nM | 257 nM | 134 to 136 °C |  | 
15 | C=CC(C)Cc1nc(N)nc(N2CCN(C)CC2)n1 (centres unmarked) [Compound 18, 4-(2-Methylbut-3-enyl)-6-(4-methylpiperazin-1-yl)-1,3,5-triazin-2-amine] | 104% | 262 nM | 66.6 ± 3 nM | 101% | 11 nM | 188 ± 45 nM | 64.6 nM | 113 to 115 °C |  | 
16 | CCCCCc1nc(N)nc(N2CCN(C)CC2)n1 [Compound 19, 4-(4-Methylpiperazin-1-yl)-6-pentyl-1,3,5-triazin-2-amine] | 97% | 393 nM | 34.9 ± 7 nM | 99% | 5.62 nM | 419 ± 77 nM | 145 nM | 173 to 178 °C |  | 
17 | CC/C=C/Cc1nc(N)nc(N2CCN(C)CC2)n1 [Compound 20, (E)-4-(4-Methylpiperazin-1-yl)-6-(pent-2-enyl)-1,3,5-triazin-2-amine] |  |  | 376 ± 9 nM | 101% |  |  |  | 117 to 119 °C | 6% | 
18 | CN1CCN(c2nc(N)nc(CC3CCCCC3)n2)CC1 [TR-AF-49] | 98% |  | 68 ± 7 nM | 99% | 11.2 nM | 271 ± 11 nM | 95.5 nM |  |  | 
19 | S=C(NC1CCCCC1)N1CCC(c2cnc[nH]2)CC1 [Thioperamide, reference compound] |  |  |  | 102% |  |  |  |  |  | 111%

Reference: paper PMC10224356, “Trisubstituted 1,3,5-Triazines as Histamine H4 Receptor Antagonists with Promising Activity In Vivo” (Molecules, 2023)
